Reference: ChEMBL document CHEMBL1201862, “PubChem BioAssay data set” (2004)
Activity calls are given as the source filed them.

Legend:
[1] = target: DNA damage-inducible transcript 3 protein (Mus musculus, UniProt P35639); assay type: functional, Cricetulus griseus
[2] = target: Genome polyprotein (dengue virus type 2, UniProt P29990); assay: Dengue-2 NS5 methyltransferase inhibitors, primary screen, biochemical, confirmation dose response (AID 588689); assay type: functional
[3] = target: X-box-binding protein 1 (Homo sapiens, UniProt P17861); assay type: functional, Cricetulus griseus;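 note: confirmatory dose-response counter-screen serving a CHOP assay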
X-box-binding protein 1, sequence (P17861 whole entry): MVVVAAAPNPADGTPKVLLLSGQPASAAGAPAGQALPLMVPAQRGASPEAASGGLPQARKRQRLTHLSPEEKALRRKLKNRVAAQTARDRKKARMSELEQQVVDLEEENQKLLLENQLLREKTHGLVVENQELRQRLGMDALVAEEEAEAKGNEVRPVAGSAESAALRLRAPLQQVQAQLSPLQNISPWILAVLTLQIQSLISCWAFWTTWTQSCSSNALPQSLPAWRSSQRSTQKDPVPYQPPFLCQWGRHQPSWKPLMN

[4] = target: Tyrosine-protein phosphatase non-receptor type 12 (Homo sapiens, UniProt Q05209); assay: SAR Selectivity Analysis of small molecule inhibitors of PEST using pCAP in a fluorescence assay. [Related pubchem assays (depositor defined):AID1779, AID1784, AID2135]; assay type: functional
[5] = target: T1, Voltage-gated N-type calcium channel alpha-1B subunit/Amyloid beta A4 precursor protein-binding family A member 1 (Homo sapiens, UniProt Q00975+Q02410); assay type: protein assay
T1 sequence (Q00975 whole entry): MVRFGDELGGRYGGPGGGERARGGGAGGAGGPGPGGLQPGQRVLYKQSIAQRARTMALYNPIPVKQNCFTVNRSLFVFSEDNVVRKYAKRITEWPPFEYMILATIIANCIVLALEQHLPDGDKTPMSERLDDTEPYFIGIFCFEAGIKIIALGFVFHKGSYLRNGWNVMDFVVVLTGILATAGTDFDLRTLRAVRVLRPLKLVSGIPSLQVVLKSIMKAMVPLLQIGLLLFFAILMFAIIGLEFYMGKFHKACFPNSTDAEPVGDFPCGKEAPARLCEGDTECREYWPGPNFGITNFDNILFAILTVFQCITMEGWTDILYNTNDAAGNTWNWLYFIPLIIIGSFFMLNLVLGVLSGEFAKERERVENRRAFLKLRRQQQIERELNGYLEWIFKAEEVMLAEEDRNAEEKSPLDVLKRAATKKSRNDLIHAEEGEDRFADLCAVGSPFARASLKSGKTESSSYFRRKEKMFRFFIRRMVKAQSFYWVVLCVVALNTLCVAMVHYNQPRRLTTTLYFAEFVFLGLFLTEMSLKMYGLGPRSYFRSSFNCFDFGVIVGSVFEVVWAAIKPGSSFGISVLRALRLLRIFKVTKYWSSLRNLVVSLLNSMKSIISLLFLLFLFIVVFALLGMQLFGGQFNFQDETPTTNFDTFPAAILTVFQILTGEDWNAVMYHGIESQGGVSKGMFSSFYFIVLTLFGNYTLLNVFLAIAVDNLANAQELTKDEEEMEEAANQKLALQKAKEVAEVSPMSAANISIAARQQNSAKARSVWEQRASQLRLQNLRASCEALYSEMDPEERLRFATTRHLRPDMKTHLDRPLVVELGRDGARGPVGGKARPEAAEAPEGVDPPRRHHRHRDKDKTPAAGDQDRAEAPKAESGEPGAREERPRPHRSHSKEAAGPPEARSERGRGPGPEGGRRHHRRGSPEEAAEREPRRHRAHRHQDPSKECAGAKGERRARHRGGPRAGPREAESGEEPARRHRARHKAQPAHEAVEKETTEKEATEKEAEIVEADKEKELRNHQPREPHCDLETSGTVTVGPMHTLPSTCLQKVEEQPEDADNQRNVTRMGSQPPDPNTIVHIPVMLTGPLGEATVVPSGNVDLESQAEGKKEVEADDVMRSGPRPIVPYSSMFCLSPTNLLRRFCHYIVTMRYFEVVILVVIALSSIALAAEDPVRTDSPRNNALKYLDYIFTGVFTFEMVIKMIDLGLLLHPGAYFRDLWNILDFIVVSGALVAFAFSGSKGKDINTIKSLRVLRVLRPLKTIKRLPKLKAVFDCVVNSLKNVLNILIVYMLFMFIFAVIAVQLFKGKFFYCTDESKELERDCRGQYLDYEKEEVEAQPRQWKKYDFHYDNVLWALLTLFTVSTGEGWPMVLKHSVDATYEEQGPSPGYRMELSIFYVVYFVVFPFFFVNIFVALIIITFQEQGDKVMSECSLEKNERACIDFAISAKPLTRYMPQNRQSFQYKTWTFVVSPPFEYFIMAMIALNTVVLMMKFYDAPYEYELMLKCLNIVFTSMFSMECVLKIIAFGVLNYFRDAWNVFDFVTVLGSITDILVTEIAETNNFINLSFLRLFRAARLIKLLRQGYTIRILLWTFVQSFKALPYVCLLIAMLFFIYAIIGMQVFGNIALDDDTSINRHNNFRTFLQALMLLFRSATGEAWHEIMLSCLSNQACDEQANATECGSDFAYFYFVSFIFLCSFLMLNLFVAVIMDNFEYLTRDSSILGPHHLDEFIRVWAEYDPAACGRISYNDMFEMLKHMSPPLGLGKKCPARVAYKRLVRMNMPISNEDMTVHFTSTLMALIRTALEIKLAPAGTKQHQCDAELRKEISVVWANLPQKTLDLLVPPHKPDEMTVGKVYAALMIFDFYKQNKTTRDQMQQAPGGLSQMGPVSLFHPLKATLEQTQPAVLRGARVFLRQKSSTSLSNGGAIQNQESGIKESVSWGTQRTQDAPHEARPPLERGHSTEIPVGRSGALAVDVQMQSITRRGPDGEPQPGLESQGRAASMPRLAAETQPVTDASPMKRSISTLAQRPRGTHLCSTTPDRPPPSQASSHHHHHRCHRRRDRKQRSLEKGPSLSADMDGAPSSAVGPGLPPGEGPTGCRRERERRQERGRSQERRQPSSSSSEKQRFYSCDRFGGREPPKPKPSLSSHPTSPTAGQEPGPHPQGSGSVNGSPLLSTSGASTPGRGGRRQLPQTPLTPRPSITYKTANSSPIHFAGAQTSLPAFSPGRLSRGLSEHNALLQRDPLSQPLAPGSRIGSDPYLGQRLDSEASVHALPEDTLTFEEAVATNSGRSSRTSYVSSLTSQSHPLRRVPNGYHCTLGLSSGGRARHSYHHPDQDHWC
T1 sequence (Q02410 whole entry): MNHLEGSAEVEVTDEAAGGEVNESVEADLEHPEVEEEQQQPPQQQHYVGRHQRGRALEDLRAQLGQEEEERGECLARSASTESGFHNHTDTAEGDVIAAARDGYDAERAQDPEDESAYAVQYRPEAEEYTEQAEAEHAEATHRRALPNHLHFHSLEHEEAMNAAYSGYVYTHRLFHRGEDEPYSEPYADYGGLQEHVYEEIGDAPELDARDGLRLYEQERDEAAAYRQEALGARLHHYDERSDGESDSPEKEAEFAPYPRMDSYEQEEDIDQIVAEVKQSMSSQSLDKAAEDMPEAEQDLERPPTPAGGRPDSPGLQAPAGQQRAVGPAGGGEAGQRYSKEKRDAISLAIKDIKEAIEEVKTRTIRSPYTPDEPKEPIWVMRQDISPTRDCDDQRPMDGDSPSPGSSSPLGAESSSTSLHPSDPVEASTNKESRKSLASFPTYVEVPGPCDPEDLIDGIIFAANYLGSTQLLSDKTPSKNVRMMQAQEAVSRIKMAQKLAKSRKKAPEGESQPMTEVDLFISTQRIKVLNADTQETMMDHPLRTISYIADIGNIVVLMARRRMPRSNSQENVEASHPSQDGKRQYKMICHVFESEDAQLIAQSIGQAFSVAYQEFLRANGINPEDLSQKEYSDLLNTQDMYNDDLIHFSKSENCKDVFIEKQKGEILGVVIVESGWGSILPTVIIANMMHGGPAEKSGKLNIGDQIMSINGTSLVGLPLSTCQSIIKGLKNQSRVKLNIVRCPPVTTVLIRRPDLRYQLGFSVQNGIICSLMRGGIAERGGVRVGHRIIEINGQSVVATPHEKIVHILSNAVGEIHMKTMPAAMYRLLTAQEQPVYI

[6] = target: DNA (cytosine-5)-methyltransferase 1 (Homo sapiens, UniProt P26358); assay: DNMT1 methyltransferase inhibitors, confirmation, biochemical, fluorescent molecular beacon (AID 602386); assay type: functional
[7] = target: T2, Tyrosine-protein phosphatase non-receptor type 22 (Homo sapiens, UniProt Q9Y2R2); assay: SAR LYP1 Fluorescent Assay using pCAP substrate for In Vitro dose response studies - Set 2. [Related pubchem assays (depositor defined):AID1779, AID1784, AID2135, AID449727]; assay type: functional
T2 sequence (Q9Y2R2 whole entry): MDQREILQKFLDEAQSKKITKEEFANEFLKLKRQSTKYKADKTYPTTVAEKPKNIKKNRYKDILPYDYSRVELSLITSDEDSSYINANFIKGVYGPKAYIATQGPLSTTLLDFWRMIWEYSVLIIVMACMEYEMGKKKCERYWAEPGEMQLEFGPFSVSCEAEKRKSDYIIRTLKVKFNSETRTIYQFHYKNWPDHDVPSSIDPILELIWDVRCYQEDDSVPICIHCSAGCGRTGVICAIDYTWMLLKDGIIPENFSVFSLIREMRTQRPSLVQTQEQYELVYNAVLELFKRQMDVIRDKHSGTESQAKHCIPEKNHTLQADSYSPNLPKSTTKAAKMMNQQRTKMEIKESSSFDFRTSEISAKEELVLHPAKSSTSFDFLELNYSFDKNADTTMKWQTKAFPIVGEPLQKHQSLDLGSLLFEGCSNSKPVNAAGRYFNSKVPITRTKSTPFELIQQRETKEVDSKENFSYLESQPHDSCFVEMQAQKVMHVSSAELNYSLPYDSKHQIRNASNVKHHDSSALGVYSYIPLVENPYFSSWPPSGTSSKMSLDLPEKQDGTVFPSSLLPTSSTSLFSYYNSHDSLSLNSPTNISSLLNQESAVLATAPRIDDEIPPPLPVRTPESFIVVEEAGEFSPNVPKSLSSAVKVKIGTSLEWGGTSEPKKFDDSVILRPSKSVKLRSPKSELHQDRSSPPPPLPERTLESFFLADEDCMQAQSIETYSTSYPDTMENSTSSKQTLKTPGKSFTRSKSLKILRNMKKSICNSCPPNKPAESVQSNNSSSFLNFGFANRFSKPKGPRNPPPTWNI

[8] = target: T3, Tyrosine-protein phosphatase non-receptor type 7 (Homo sapiens, UniProt P35236); assay type: functional
T3 sequence (P35236 whole entry): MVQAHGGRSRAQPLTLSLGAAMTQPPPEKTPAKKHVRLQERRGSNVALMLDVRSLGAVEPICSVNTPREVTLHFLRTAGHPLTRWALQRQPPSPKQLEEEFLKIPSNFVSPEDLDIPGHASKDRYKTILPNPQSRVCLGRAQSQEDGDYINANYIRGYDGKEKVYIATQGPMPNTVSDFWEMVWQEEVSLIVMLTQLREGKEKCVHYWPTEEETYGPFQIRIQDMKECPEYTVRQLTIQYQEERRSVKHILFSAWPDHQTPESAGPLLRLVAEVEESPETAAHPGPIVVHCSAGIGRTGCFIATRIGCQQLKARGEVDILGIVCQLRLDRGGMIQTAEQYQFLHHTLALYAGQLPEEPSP

[9] = target: T1, Voltage-gated N-type calcium channel alpha-1B subunit/Amyloid beta A4 precursor protein-binding family A member 1; assay type: protein assay; remark: listed apart in the source
[10] = target: T2, Tyrosine-protein phosphatase non-receptor type 22; assay: inhibitors of LYP phosphatase, biochemical, fluorescence intensity, uHTS (AID 1779)
[11] = target: T2, Tyrosine-protein phosphatase non-receptor type 22; assay: SAR LYP1 Fluorescent Assay using OMFP substrate for In Vitro dose response studies - Set 2. [Related pubchem assays (depositor defined):AID1779, AID1784, AID2140, AID449726, AID488869]; assay type: functional
[12] = target: T2, Tyrosine-protein phosphatase non-receptor type 22; assay: SAR LYP1 Fluorescent Assay using OMFP substrate for In Vitro dose response studies - Set 3. [Related pubchem assays (depositor defined):AID1779, AID1784, AID2140, AID2686]; assay type: functional
[13] = target: T3, Tyrosine-protein phosphatase non-receptor type 7; assay: HTS HePTP Fluorescent Assay using OMFP substrate for In Vitro dose response studies. [Related pubchem assays (depositor defined):AID1059, AID1077, AID1784, AID2068, AID2085, AID435032, AID521]; assay type: functional
[14] = target: T2, Tyrosine-protein phosphatase non-receptor type 22; assay: LYP1 Fluorescent Assay using OMFP substrate for In Vitro dose response studies. [Related pubchem assays (depositor defined):AID1779, AID1784, AID435024]
[15] = target: T2, Tyrosine-protein phosphatase non-receptor type 22; assay type: functional
[16] = target: T2, Tyrosine-protein phosphatase non-receptor type 22; assay: LYP (PTPN22) phosphatase inhibitor potency, SAR follow-up, biochemical, pCAP fluorogenic substrate, fluorescence, set 3 (AID 449727); assay type: functional
[17] = target: T2, Tyrosine-protein phosphatase non-receptor type 22; assay type: functional; remark: listed apart in the source
[18] = Luminescence Cell-Based Dose Retest to Confirm Activators of 5'UTR Stem-Loop Driven Alpha-Synuclein mRNA Translation in H4 Neuroglioblastoma Cells. [Related pubchem assays (depositor defined):AID1813, AID1829]; assay type: functional
[19] = Luminescence Cell-Based Dose HTS Response to Identify Inhibitors of 5'UTR Stem-Loop Driven Prion Protein mRNA Translation in H4-C Neuroglioblastoma Cells. [Related pubchem assays (depositor defined):AID1814, AID1827]; assay type: functional
[20] = Luminescence Cell-Based Dose Response HTS to Identify Activators of 5'UTR Stem-Loop Driven Prion Protein mRNA Translation in H4-C Neuroglioblastoma Cells. [Related pubchem assays: 1829 (Project Summary), 1814 (Primary HTS)]; assay type: functional
[21] = Luminescence Cell-Based Dose Response HTS to Identify Activators of Luciferase Translation or Activity in H4-C Neuroglioblastoma Cells. [Related pubchem assays: 1829 (Project Summary), 1814 (Primary HTS)]; assay type: functional
[22] = Luminescence Cell-Based Dose Response HTS to Identify Inhibitors of Luciferase Translation or Activity in H4-C Neuroglioblastoma Cells. [Related pubchem assays: 1813 (Primary HTS), 1827 (Project Summary)]; assay type: functional
[23] = Luminescence Cell-Based Dose Confirmation HTS to Identify Inhibitors of 5'UTR Stem-Loop Driven Alpha-Synuclein mRNA Translation in H4 Neuroglioblastoma Cells. [Related pubchem assays: 1827 (Project Summary), 1813 (Primary HTS)]; assay type: functional
[24] = target: Keap1/Nrf2 (Homo sapiens, UniProt Q14145); assay: Keap1-Nrf2 protein-protein interaction inhibitors, dose response, biochemical, fluorescence polarization, cherry-picked samples (AID 588683)
[25] = fluorescence interference artefacts, compound only, dose response, artefact control for cardiac thin filament activator project, biochemical, no RTF in test wells (AID 504697)
[26] = target: ORF 73 (Human herpesvirus 8, UniProt O40947); assay: inhibitors of C-LANA binding to LBS DNA, dose response, biochemical, fluorescence polarization, cherry-picked samples (AID 504725); set-up: species or system Human gammaherpesvirus 8;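 note: fluorescence polarization of a labeled DNA duplex reporting LANA DNA binding; potency is for inhibitors that block LANA binding to the DNA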
[27] = tested on: Salmon testes DNA; assay: DNA intercalators displacing acridine orange, dose response, artefact control for KSHV LANA DNA-binding inhibitor project, biochemical, fluorescence polarization, cherry-picked samples, set 2 (AID 504727); set-up: species or system Salmonidae
[28] = target: Troponin, cardiac muscle (Homo sapiens, UniProt P19429+P45379+P63316); assay: Fluorescence-based biochemical high throughput dose response assay for activators of the calcium sensitivity of cardiac Regulated Thin Filaments (RTF). [Related pubchem assays (depositor defined):AID493008, AID493018, AID504382, AID504383]; assay type: protein-complex assay

DNA damage-inducible transcript 3 protein, sequence (P35639 whole entry): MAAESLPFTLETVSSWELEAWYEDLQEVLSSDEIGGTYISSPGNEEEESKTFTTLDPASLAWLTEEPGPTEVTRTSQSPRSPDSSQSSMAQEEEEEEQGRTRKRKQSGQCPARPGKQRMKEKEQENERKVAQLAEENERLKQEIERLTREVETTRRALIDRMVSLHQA
Genome polyprotein, sequence (P29990 2492-3391 limits assumed): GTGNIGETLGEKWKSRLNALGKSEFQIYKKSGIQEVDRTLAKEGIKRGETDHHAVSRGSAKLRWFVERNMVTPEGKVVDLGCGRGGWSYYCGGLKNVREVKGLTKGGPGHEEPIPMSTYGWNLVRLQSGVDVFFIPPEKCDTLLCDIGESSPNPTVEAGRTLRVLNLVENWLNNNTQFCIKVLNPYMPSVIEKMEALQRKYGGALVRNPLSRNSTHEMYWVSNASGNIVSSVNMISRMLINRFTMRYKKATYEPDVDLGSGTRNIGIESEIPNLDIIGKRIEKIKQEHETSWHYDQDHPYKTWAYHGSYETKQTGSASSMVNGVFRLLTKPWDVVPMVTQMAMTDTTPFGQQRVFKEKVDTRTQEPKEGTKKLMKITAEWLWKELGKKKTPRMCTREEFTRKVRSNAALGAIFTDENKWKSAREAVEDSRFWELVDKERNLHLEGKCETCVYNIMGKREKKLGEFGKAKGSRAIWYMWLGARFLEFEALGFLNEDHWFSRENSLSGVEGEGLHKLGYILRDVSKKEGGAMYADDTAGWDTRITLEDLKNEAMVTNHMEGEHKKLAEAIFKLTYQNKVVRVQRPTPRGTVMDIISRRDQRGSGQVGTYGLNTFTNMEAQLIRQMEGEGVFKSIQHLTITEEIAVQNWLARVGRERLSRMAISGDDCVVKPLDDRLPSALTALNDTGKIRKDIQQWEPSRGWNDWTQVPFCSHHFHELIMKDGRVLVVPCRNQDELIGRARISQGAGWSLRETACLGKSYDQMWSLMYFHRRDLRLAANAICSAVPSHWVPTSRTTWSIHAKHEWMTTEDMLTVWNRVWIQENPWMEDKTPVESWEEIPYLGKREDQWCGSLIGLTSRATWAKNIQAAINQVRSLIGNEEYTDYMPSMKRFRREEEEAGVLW

SMILES: Nc1cccc2c1C(=O)N(C(=O)/C=C/c1cccc(F)c1)C2=O
- Absolute IC50 (CHOP) [1]: < 10 µM
- IC50 [2]: > 100 µM (active)
- Absolute IC50 (XBP1) [3]: 10 µM

SMILES: CCOc1cc(/C=C(\C#N)C(=O)Nc2cccc(C(=O)O)c2)ccc1OCc1ccc(Br)cc1
- IC50 [4]: 0.471 µM (active)
- IC50 [5]: 44.3 µM (active)
- IC50 [6]: 5.4 µM (active)
- IC50 [7]: 1.86 µM (active)
- IC50 [8]: 2.41 µM (active)
- IC50 [9]: > 50 µM (inactive)
- IC50 [10]: 3.97 µM (active)
- IC50 [11]: 1.54 µM (active)
- IC50 [12]: 0.775 µM (active)
- IC50 [13]: 4.94 µM (active)
- IC50 [14]: 1.3 µM (active)
- IC50 [15]: < 1.24 µM (active)
- IC50 [16]: 1.74 µM (active)
- IC50 [17]: 3.78 µM (active)

SMILES: COc1ccc2c(c1)sc(N)[n+]2Cc1cc(C)cc2cccnc12
- EC50 [18]: 6.36 µM (inconclusive)
- EC50 [19]: 0.711 µM (active)
- EC50 [20]: 0.711 µM (inconclusive)
- EC50 [21]: 10.3 µM (inconclusive)
- EC50 [22]: 10.3 µM (active)
- EC50 [23]: 6.36 µM (active)

SMILES: CN1CC=C2C(C#N)=C(N)C(C#N)(C#N)[C@H](c3ccoc3)[C@H]2C1
- AC50 [24]: 47.9 µM (active)
- EC50 [25]: > 7.94 µM (active)
- AC50 [26]: 58.9 µM (active)
- AC50 [27]: 79 µM (active)
- EC50 [28]: 8.32 µM (active)
